ChEMBL document CHEMBL6103589, “Synthesis and evaluation of novel ebselen derivatives as urease inhibitors for combating Helicobacter pylori infections” (Eur J Med Chem, 2025)
Active and inactive are the calls of the source. The rule behind the calls is not given here.

Tests used:
Helicobacter pylori [1] = assay: Protection against Helicobacter pylori ATCC 43504 infected (MOI 400:1) in human GES1 cell injury model assessed as reduction in cell apoptosis rate at 25 uM pre-treated for 2 hrs followed by bacterial infection measured after 6 hrs by Annexin/V-FITC staining based flow cytometry analysis (reference value: 56.03%); assay type: functional; set-up: scale not given: the % may be the effect or the level left; settings: time 8 hrs
Helicobacter pylori [2] = assay: Protection against Helicobacter pylori ATCC 43504 infected (MOI 300:1) in human GES1 cell injury model assessed as necrotic cells at 50 uM pre-treated for 2 hrs followed by bacterial infection measured after 6 hrs by Annexin/V-FITC staining based flow cytometry analysis (reference value: 6.05%); assay type: functional; settings: time 8 hrs
Helicobacter pylori [3] = assay: Protection against Helicobacter pylori ATCC 43504 infected (MOI 400:1) in human GES1 cell injury model assessed as viable cells at 50 uM pre-treated for 2 hrs followed by bacterial infection measured after 6 hrs by Annexin/V-FITC staining based flow cytometry analysis (reference value: 37.61%); assay type: functional; settings: time 8 hrs
GES1 = assay: Cytotoxicity against human GES1 cells at upto 75 uM by MTT assay; assay type: toxicity, cell-based; settings: ges1, 75 µM
Helicobacter pylori [4] = assay: Protection against Helicobacter pylori ATCC 43504 infected (MOI 200:1) in human GES1 cell injury model assessed as late apoptotic cells at 50 uM pre-treated for 2 hrs followed by bacterial infection measured after 6 hrs by Annexin/V-FITC staining based flow cytometry analysis (reference value: 6.28%); assay type: functional; settings: time 8 hrs
Helicobacter pylori [5] = assay: Protection against Helicobacter pylori ATCC 43504 infected (MOI 50:1) in human GES1 cell injury model assessed as late apoptotic cells at 25 uM pre-treated for 2 hrs measured after 6 hrs by Annexin/V-FITC staining based flow cytometry analysis (reference value: 2.85%); assay type: functional; settings: time 8 hrs
Helicobacter pylori [6] = assay: Protection against Helicobacter pylori ATCC 43504 infected (MOI 300:1) in human GES1 cell injury model assessed as viable cells at 25 uM pre-treated for 2 hrs followed by bacterial infection measured after 6 hrs by Annexin/V-FITC staining based flow cytometry analysis (reference value: 47.43%); assay type: functional; settings: time 8 hrs
Helicobacter pylori [7] = assay: Protection against Helicobacter pylori ATCC 43504 infected (MOI 300:1) in human GES1 cell injury model assessed as late apoptotic cells at 50 uM pre-treated for 2 hrs followed by bacterial infection measured after 6 hrs by Annexin/V-FITC staining based flow cytometry analysis (reference value: 11.95%); assay type: functional; settings: time 8 hrs
Helicobacter pylori [8] = assay: Protection against Helicobacter pylori ATCC 43504 infected (MOI 100:1) in human GES1 cell injury model assessed as viable cells followed by bacterial infection at 25 uM pre-treated for 2 hrs measured after 6 hrs by Annexin/V-FITC staining based flow cytometry analysis (reference value: 68.36%); assay type: functional; settings: time 8 hrs
[9] = Acute toxicity in BALB/c mouse assessed as change in stool color at 1 g/Kg, po single dose administered for 7 days; assay type: organism-based; settings: in vivo, 1000 mg/kg, 168 h, time 7 day
Helicobacter pylori [10] = assay: Protection against Helicobacter pylori ATCC 43504 infected (MOI 300:1) in human GES1 cell injury model assessed as early apoptotic cells at 50 uM pre-treated for 2 hrs followed by bacterial infection measured after 6 hrs by Annexin/V-FITC staining based flow cytometry analysis (reference value: 34.57 %); assay type: functional; settings: time 8 hrs
Helicobacter pylori [11] = assay: Protection against Helicobacter pylori ATCC 43504 infected (MOI 25:1) in human GES1 cell injury model assessed as viable cells at 25 uM pre-treated for 2 hrs measured after 6 hrs by Annexin/V-FITC staining based flow cytometry analysis (reference value: 89.14%); assay type: functional; settings: time 8 hrs
Helicobacter pylori [12] = assay: Protection against Helicobacter pylori ATCC 43504 infected (MOI 25:1) in human GES1 cell injury model assessed as viable cells at 50 uM pre-treated for 2 hrs followed by bacterial infection measured after 6 hrs by Annexin/V-FITC staining based flow cytometry analysis (reference value: 89.14%); assay type: functional; settings: time 8 hrs
Helicobacter pylori [13] = assay: In vivo protection against Helicobacter pylori ATCC 43504 infected in BALB/c mouse gastric mucosa model assessed as effect on inflammatory cell infiltration at 25 mg/kg administered once a day for 2 weeks by HE staining based analysis; assay type: functional, organism-based
[14] = Acute toxicity in BALB/c mouse assessed as pathological abnormality in lungs at 1 g/Kg, po single dose administered for 7 days by HE staining based analysis; assay type: organism-based; settings: in vivo, 1000 mg/kg, 168 h, time 7 day
Helicobacter pylori [15] = assay: In vivo protection against Helicobacter pylori ATCC 43504 infected in BALB/c mouse gastric mucosa model assessed as effect on hyperplasia at high dose administered once a day for 2 weeks by HE staining based analysis; assay type: functional, organism-based
Helicobacter pylori [16] = assay: Protection against Helicobacter pylori ATCC 43504 infected (MOI 50:1) in human GES1 cell injury model assessed as viable cells at 50 uM pre-treated for 2 hrs followed by bacterial infection measured after 6 hrs by Annexin/V-FITC staining based flow cytometry analysis (reference value: 81.14%); assay type: functional; settings: time 8 hrs
Helicobacter pylori [17] = assay: Protection against Helicobacter pylori ATCC 43504 infected (MOI 25:1) in human GES1 cell injury model assessed as necrotic cells at 50 uM pre-treated for 2 hrs measured after 6 hrs by Annexin/V-FITC staining based flow cytometry analysis (reference value: 0.66%); assay type: functional; settings: time 8 hrs
Helicobacter pylori [18] = assay: In vivo protection against Helicobacter pylori ATCC 43504 infected in BALB/c mouse gastric mucosa model assessed as appearance of intact lamina propria at high dose administered once a day for 2 weeks by HE staining based analysis; assay type: functional, organism-based
[19] = Acute toxicity in BALB/c mouse assessed as change in daily behaviour at 1 g/Kg, po single dose administered for 7 days; assay type: organism-based; settings: in vivo, 1000 mg/kg, 168 h, time 7 day
Helicobacter pylori [20] = assay: Antibacterial activity against Helicobacter pylori ATCC 43504 assessed as inhibition of bacterial colonies at 8 ug/mL incubated for 24 hrs by crystal violet based staining based analysis relative to control; assay type: functional; set-up: scale not given: the % may be the effect or the level left; settings: dose 8 µg/ml
Helicobacter pylori [21] = assay: Protection against Helicobacter pylori ATCC 43504 infected (MOI 200:1) in human GES1 cell injury model assessed as viable cells at 50 uM pre-treated for 2 hrs followed by bacterial infection measured after 6 hrs by Annexin/V-FITC staining based flow cytometry analysis (reference value: 57.87%); assay type: functional; settings: time 8 hrs
[22] = Acute toxicity in BALB/c mouse assessed as pathological abnormality in kidney at 1 g/Kg, po single dose administered for 7 days by HE staining based analysis; assay type: organism-based; settings: in vivo, 1000 mg/kg, 168 h, time 7 day
Helicobacter pylori [23] = assay: In vivo protection against Helicobacter pylori ATCC 43504 infected in BALB/c mouse gastric mucosa model assessed as appearance of intact tissue structure at low dose administered once a day for 2 weeks by HE staining based analysis; assay type: functional, organism-based
Helicobacter pylori [24] = assay: Protection against Helicobacter pylori ATCC 43504 infected (MOI 400:1) in human GES1 cell injury model assessed as early apoptotic cells at 50 uM pre-treated for 2 hrs followed by bacterial infection measured after 6 hrs by Annexin/V-FITC staining based flow cytometry analysis (reference value: 42.41 %); assay type: functional; settings: time 8 hrs
Helicobacter pylori [25] = assay: Protection against Helicobacter pylori ATCC 43504 infected (MOI 300:1) in human GES1 cell injury model assessed as early apoptotic cells at 25 uM pre-treated for 2 hrs followed by bacterial infection measured after 6 hrs by Annexin/V-FITC staining based flow cytometry analysis (reference value: 34.57 %); assay type: functional; settings: time 8 hrs
Helicobacter pylori [26] = assay: In vivo protection against Helicobacter pylori ATCC 43504 infected in BALB/c mouse gastric mucosa model assessed as effect on pathological lesion at low dose administered once a day for 2 weeks by HE staining based analysis; assay type: functional, organism-based

`O=C(Oc1n[se]c2ccccc12)c1cccc(F)c1` showed an Activity (Helicobacter pylori [1]) of 38.48%, an Activity (Helicobacter pylori [2]) of 2.01% and an Activity (Helicobacter pylori [3]) of 89.4%. For the same compound, the Activity (GES1) was “Non-toxic”, the Activity (Helicobacter pylori [4]) was 0.21% and the Activity (Helicobacter pylori [5]) was 0.05%. The Activity (Helicobacter pylori [6]) was 83.86%, the Activity (Helicobacter pylori [7]) was 2.53% and the Activity (Helicobacter pylori [8]) was 91.76%. For the same compound, the Activity [9] was “Non-toxic”, the Activity (Helicobacter pylori [10]) was 3.14% and the Activity (Helicobacter pylori [11]) was 98.45%. The Activity (Helicobacter pylori [12]) was 99.06%, the Activity (Helicobacter pylori [13]) was “Active” and the Activity [14] was “Non-toxic”. The Activity (Helicobacter pylori [15]) was “inactive”, the Activity (Helicobacter pylori [16]) was 97.06% and the Activity (Helicobacter pylori [17]) was 0.43%. For the same compound, the Activity (Helicobacter pylori [18]) was “Active”, the Activity [19] was “Non-toxic” and the Activity (Helicobacter pylori [20]) was 100%. For the same compound, the Activity (Helicobacter pylori [21]) was 94.61%, the Activity [22] was “Non-toxic” and the Activity (Helicobacter pylori [23]) was “Active”. The Activity (Helicobacter pylori [24]) was 7.61%, the Activity (Helicobacter pylori [25]) was 15.81% and the Activity (Helicobacter pylori [26]) was “inactive”.
